Data on seven compounds can be found in PMC5329011 (Frontiers in Neuroscience, 2017).

For data set [1], the target named is T1, apelin receptor (Homo sapiens, UniProt P35414).
T1 sequence (P35414 1-380): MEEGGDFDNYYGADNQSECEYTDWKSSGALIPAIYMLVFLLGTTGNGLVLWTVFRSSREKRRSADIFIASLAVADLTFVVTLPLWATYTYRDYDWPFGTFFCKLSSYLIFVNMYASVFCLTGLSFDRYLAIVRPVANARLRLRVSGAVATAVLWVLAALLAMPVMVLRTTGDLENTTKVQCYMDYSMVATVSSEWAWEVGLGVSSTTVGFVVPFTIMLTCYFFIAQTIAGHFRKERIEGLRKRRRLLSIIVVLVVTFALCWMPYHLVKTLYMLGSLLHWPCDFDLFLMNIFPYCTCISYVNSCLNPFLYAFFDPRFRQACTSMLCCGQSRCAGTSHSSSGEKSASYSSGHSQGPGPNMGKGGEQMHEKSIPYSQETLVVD
The data set is described as follows: Inhibition of forskolin-stimulated cAMP accumulation (DiscoverX). The class given is cell-based. To be noted: 15 μmol/L forskolin, cells expressing human apelin receptor, mean ± SEM, n = replicates/experiments, read-out: pD2, inhibition of forskolin-stimulated cAMP (converted). Here is the method: (§1) Inhibition of cAMP accumulation, β-arrestin recruitment and receptor internalization by apelin isoforms, modified and truncated apelin peptides were studied using cells expressing the human apelin receptor (DiscoverX, CA, USA) as per the manufacturer's instructions. In all assays the resulting chemiluminescent signal was measured as relative light units (RLU) using a LumiLITE™ Microplate Reader (DiscoveRx, Fremont, CA). […] Agonist responses were expressed as a % of the forskolin response. […] Data were analyzed using a 4-parameter logistic equation using GraphPad Prism 6 to determine values of potency, pD2 (−log10 EC50, where EC50 is the concentration producing half maximal response) and maximum response (EMAX). n-Values are given as number of replicates/number of experiments.

Data set [2] has as its target T1, apelin receptor. Put plainly: β-arrestin recruitment assay (DiscoverX). The class given is cell-based. To be noted: cells expressing human apelin receptor, mean ± SEM, n = replicates/experiments, read-out: pD2, β-arrestin recruitment (converted). Here is the method:
as §1
Background: Arrestin recruitment assays detect the binding of arrestin to an activated receptor.

For data set [3], the target named is T1, apelin receptor. Put plainly: Receptor internalization assay (DiscoverX). Type of data set: cell-based. The protocol: as §1
For data set [4], the target named is T1, apelin receptor. Put plainly: β-arrestin assay without and with pre-incubation with rhACE2. The class given is cell-based. Here is the method: as §1
Data set [5] has as its target T2, vascular smooth muscle apelin receptor (Homo sapiens, UniProt P35414).
T2 construct: from tissue; host or cells: endothelium-denuded human saphenous vein
T2 sequence (P35414 1-380): T1 sequence (P35414 1-380)
Put plainly: Contraction of endothelium-denuded human saphenous vein. The conditions noted are these: n = 9; for Emax: % of terminal response to KCl (100 mmol/L). Here is the method: (§2) Vascular smooth muscle apelin receptor-mediated contraction was exploited in a bioassay to compare the in vitro potency of apelin peptides. […] Agonist responses were expressed as a % of a terminal response to KCl (100 mmol/L). […] Data were expressed as % of the terminal response to CaCl2. Data from vascular and cardiac experiments were analyzed using a 4-prameter logistic curve (GraphPad Prism 6) to determine values of pD2 and EMAX.

The conditions of data set [6]: human, in vivo. The protocol: Studies were performed in healthy volunteers (n = 12) in the University of Cambridge Vascular Research Unit, Addenbrooke's Hospital, Cambridge, UK. This study was carried out in accordance with the recommendations of the National Research Ethics Service Committee East of England-Cambridge Central with written informed consent from all subjects. All subjects gave written informed consent in accordance with the Declaration of Helsinki. The protocol was approved by the National Research Ethics Service Committee East of England-Cambridge Central (REC 11/EE/0305).
Exclusion criteria were ischemic heart disease, respiratory, renal or neurological disease, diabetes mellitus, hypertension, BMI > 30, BMI <18; smoker; pregnant; use of vasoactive medication or NSAIDS/aspirin within 48 h of study; current involvement in other research studies. An Omron HEM705CP oscillimetric sphygmomanometer was used to measure blood pressure and heart rate at baseline and then every 6 min in the contralateral arm. Periodically, a cuff around the upper arm was inflated for ~8 s to 40 mmHg then deflated for 4 s to interrupt venous return and during a 3 min measurement hand circulation was excluded by inflation of wrist cuffs to 200 mmHg. Changes in forearm volume were measured by mercury-in-silastic strain gauge with FBF subsequently expressed as ml/100 ml forearm volume per min. […]

In data set [7] the target is T1, apelin receptor. Put plainly: Competition binding with [Glp65,Nle75,Tyr77][125I]apelin-13 in human left ventricle homogenate. Also noted: from tissue; host or cells: human left ventricle homogenate. The protocol:
Assays were performed in human heart as previously described (Brame et al., [2015]). […] Equilibrium was broken by centrifugation (20,000 g for 10 min, 4°C) and pellets washed with Tris-HCl buffer (50 mmol/L, pH 7.4, 4°C), re-centrifuged and pellets counted for detection of bound radioactivity. Competition binding data were analyzed using GraphPad Prism 6 (GraphPad Software, Inc. La Jolla, CA, USA) to obtain values of pKi (the negative log10 of the dissociation constant derived from the IC50 for the competing ligands, the radioligand concentration and radioligand affinity by the Cheng and Prusoff equation). Experiments were performed in triplicate.
Measurements are mean ± standard error of the mean (SEM). […] Cell assay pD2 values were compared by one-way ANOVA followed by Tukey's multiple comparison test.

For data set [8], the target named is T3, recombinant human ACE2 (Homo sapiens, UniProt Q9BYF1).
T3 construct: purchased GSK, Ware, UK
The data set is described as follows: Incubation with rhACE2, Maldi-TOF mass spectrometry. The class given is in vitro ADME. The conditions noted are these: 5 nmol peptide, 5 pmol rhACE2, MES buffer pH 6.5, 2 h, 37°C, Maldi-TOF read-out. Here is the method:
The reaction mixture was analyzed by Maldi-TOF mass spectrometry after samples were desalted using Millipore μC18ZipTip (MA, USA), washed with 5% acetic acid and eluted with CHCA matrix (in 50% aqueous acetonitrile containing 0.1% trifluoroacetic acid) to a stainless steel sample slide. Samples were air dried and analyzed using a Waters Maldi MicroMX time-of-flight mass spectrometer (MA, USA). Calibration was external using polyethylene glycol. The 10 Hz-laser power was just above threshold. The spectra were the sum of 1,000 shots collected from a spiral track of the sample area. Data were processed using Waters MassLynx software (MA, USA).

For data set [9] the following is noted: cited from earlier work. From the text:
Apelins are modulators of vascular tone and cardiac contractility in vitro and in vivo (Japp et al., [2008], [2010]; Maguire et al., [2009]; Barnes et al., [2013]; Brame et al., [2015]).

Data set [10] relates to mouse paced right ventricle. Put plainly: Inotropic action in mouse paced right ventricle. To be noted: mouse paced RV, n = 6 (isoprenaline n = 4). The protocol: as §2
Data set [11] has as its system rhACE2. Put plainly: rhACE2 enzyme (5 pmol, GSK) in buffer (pH 6.5) containing MES (500 mmol/L), NaCl (300 mmol/L) and ZnCl2 (10 μmol/L). The conditions noted are these: human, 37°C, up to 2 h.
A short description of data set [12]: rat in vivo. To be noted: cited from earlier work.

Read-outs that look alike come from different tables or passages of the source. Ends that are not written are not given here.

T3 sequence (Q9BYF1 18-740 limits assumed): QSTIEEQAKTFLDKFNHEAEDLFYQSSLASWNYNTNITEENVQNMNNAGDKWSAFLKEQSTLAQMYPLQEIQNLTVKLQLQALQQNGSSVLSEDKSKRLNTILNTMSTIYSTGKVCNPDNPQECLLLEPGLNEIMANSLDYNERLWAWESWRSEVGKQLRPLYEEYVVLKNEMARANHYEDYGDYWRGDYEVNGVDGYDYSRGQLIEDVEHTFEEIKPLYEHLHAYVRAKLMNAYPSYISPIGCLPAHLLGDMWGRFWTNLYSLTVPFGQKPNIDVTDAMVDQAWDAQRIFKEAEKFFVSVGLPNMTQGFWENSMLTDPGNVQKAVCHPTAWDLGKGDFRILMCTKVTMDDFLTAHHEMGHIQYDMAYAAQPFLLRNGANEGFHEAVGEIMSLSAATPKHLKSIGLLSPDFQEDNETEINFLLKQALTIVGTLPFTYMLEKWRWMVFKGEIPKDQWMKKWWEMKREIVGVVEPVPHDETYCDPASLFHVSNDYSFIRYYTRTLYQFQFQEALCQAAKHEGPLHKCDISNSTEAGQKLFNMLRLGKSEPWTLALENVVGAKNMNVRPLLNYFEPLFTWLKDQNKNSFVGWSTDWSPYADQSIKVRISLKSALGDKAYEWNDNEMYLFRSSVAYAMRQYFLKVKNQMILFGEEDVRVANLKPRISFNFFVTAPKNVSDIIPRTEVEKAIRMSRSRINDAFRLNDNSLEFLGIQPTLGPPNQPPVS

Turning to `CSCC[C@H](NC(=O)[C@@H]1CCCN1C(=O)CNC(=O)[C@H](CCCCN)NC(=O)[C@H](Cc1c[nH]cn1)NC(=O)[C@H](CO)NC(=O)[C@H](CC(C)C)NC(=O)[C@H](CCCNC(=N)N)NC(=O)[C@@H]1CCCN1C(=O)[C@H](CCCNC(=N)N)NC(=O)[C@@H]1CCC(=O)N1)C(=O)N1CCC[C@H]1C(=O)O` [[Pyr^1]apelin-13(1–12)], the EC50 in data set [1] was 0.501 nM; in data set [2], 14.5 nM; in data set [3] (mean ± SEM, SEM, read-out: pD2, receptor internalization (converted)), 6.46 nM; in data set [4] (without or with pre-incubation with rhACE2 (2 h, 37°C), mean ± SEM, SEM, read-out: Potency (pD2) (converted)), 53.7 nM; in [5] (endothelium-denuded human saphenous vein, mean ± SEM, SEM, read-out: pD2, contraction of saphenous vein (converted)), 0.234 nM. The Emax (as a rule, the greatest response seen or fitted, relative to the assay's reference) in [3] turned out to be 97 ± 2%; in data set [5], 24 ± 6%. Besides, the “EMAX (% [Pyr^1]apelin-13)” value in data set [4] (without or with pre-incubation with rhACE2) was determined as 98 ± 5 % [Pyr^1]apelin-13. For the same compound, in [6], the “effect on heart rate or blood pressure” value is reported as “No significant effects”. In addition, in data set [7] (0.1 nmol/L radioligand, 90 min, 22°C, pH 7.4, Cheng-Prusoff, mean ± SEM, n = 3, SEM), the Ki (usually the equilibrium dissociation constant of an inhibitor or competing ligand from its target) was 9.12 nM.

For the compound `CSCC[C@H](NC(=O)[C@@H]1CCCN1C(=O)CNC(=O)[C@H](CCCCN)NC(=O)[C@H](Cc1cnc[nH]1)NC(=O)[C@H](CO)NC(=O)[C@H](CC(C)C)NC(=O)[C@H](CCCNC(=N)N)NC(=O)[C@@H]1CCCN1C(=O)[C@H](CCCNC(=N)N)NC(=O)[C@@H]1CCC(=O)N1)C(=O)N1CCC[C@H]1C(=O)N[C@@H](Cc1ccccc1)C(=O)O` [[Pyr^1]apelin-13], the “result of incubation with rhACE2” value in [8] is “de novo generation of [Pyr^1]apelin-13(1–12), with a weak signal representing the remaining parent peptide”. Moreover, the half-life result in [9] (humans, ref Japp et al., 2008) is “less than 8 min”; in data set [9] (rat, ref Brame et al., 2015), “less than 3 min”.

`CSCC[C@H](NC(=O)[C@@H]1CCCN1C(=O)CNC(=O)[C@H](CCCCN)NC(=O)[C@H](Cc1c[nH]cn1)NC(=O)[C@H](CO)NC(=O)[C@H](CC(C)C)NC(=O)[C@H](CCCNC(=N)N)NC(=O)[C@@H]1CCCN1C(=O)[C@H](CCCNC(=N)N)NC(=O)[C@@H](N)CCC(N)=O)C(=O)N1CCC[C@H]1C(=O)N[C@@H](C)C(=O)O` [apelin-13(F13A), reference compound]: in data set [5], the maximal effect (Emax) stood at 23 ± 4%.

Turning to `CC(C)NCC(O)c1ccc(O)c(O)c1` (stereo not shown) [isoprenaline], in [10] (mean ± SEM, SEM, read-out: pD2, increase in force of contraction (converted)), the EC50 is 13.2 nM. Moreover, the “EMAX, increase in force of contraction” value in [10] stood at 78 ± 17 % CaCl2.

Consider RPRLSHKGPM [apelin-13(R10M)], for which the figures for the EC50 in data set [1] and in data set [2] were 2 nM and 5.5 nM, respectively. Also, the “% of specific binding competed for” value in data set [7] (single concentration 1 μM peptide) was 100%.

Regarding “pGlu-Arg-Pro-Arg-Leu-Ser-His-Lys-Gly-Pro-Met-Pro”, the not cleaved entry in data set [11] was “did not produce shorter apelin fragments (2 h)”.

“pGlu-Arg-Pro-Arg-Leu-Ser-His-Lys-Gly-Pro-Met-Pro-Phe”: the cleaved bond entry in data set [12] is listed as “Pro12-Phe13, minor”; in [11], “Pro12-Phe13, 2 h”.
